Like-named read-outs stand apart in the source and are kept apart here.
Columns and labels:
HIV-IRF = assay: PC assay (cells pre-treated with compound, washed, then virus); format: cell-based; conditions: Human immunodeficiency virus 1, PM1, read-out: 50% Effective Concentrations (IC50)
Method: PC assay: Indicator T cells (PM-1; 10^5/well) were pre-treated with compound for 1 hour at 37° C., compound was removed by washing with 4 volumes of PBS, treated cells were added to immobilized virus (HIV-IRF; 10^3 TCID50) and incubated for 8 days.
In each of the assays above, viral replication was monitored after 8 days by measuring reverse transcriptase activity.

[1] = tested on: HIV-1 strain III-B (X4 strain); assay: Viral entry/binding inhibition assay (VBI), strain IIIB; format: cell-based; conditions: Human immunodeficiency virus 1, Series 2, P4-R5 cells, 2 hour incubation, read-out: 50% Effective Concentrations (IC50)
Method: Viral entry inhibition assay (VBI): Cell-free HIV-1 (strain III-B: X4 strain; or strain BaL: R5 strain) was incubated with compound and P4-R5 cells for 2 hours at 37° C., followed by washing and 48 hour incubation.

[2] = tested on: HIV-1 infected SupTi cells (strain IIIB); assay: Cell to cell transmission assay (CTC); format: cell-based; conditions: Human immunodeficiency virus 1, IIIB, Series 2, P4-R5 cells, 2 hour incubation, read-out: 50% Effective Concentrations (IC50)
Method: Cell to cell transmission assay (CTC): HIV-1 infected SupTi cells (strain IIIB), killed prior to exposure, were incubated with compound and P4-R5 cells for 2 hours at 37° C., followed by washing and 48 hour incubation.

[3] = tested on: C. trachomatis Serovar E elementary bodies; assay: Chlamydia trachomatis inhibition assay; format: cell-based
Method: C. trachomatis Serovar E elementary bodies ([…]; 10^4 IFU) were incubated for 4 hours on ice with compound, the mixture was inoculated into HeLa cell monolayers, and incubated for 1 hour. The inoculum was removed, the medium changed and the cells incubated overnight (20-22 hours). The cells were removed, fixed, permeabilized, and the infected cells detected by fluorescently tagged antibody and flow cytometry.

C. albicans = assay: Aerobe inhibition assay; format: cell-based; conditions: Candida albicans; 2 strains; read-out: Minimum Inhibitory Concentrations (MICs)
Method: (§1) The aerobic organisms were suspended into saline to the turbidity of the 0.5 McFarland standard, diluted 1:10, pipetted into the wells of the Steers replicator head, and stamped onto the Mueller Hinton agar plates containing the serial dilutions of the antimicrobials.
(§2) The anaerobes were incubated in an anaerobic chamber at 37° C. for 2 days; aerobes were incubated in ambient air at 36° C. for 20h.

E. coli = assay: Aerobe inhibition assay; format: cell-based; conditions: 2 strains
Method: as §1, §2

Enterococcus faecalis = assay: Aerobe inhibition assay; format: cell-based; conditions: 1 strain, read-out: Minimum Inhibitory Concentrations (MICs)
Method: as §1, §2

Enterococcus faecium = assay: Aerobe inhibition assay; format: cell-based; conditions: 1 strain, read-out: Minimum Inhibitory Concentrations (MICs)
Method: as §1, §2

K1 pneumoniae = assay: Aerobe inhibition assay; format: cell-based; conditions: 2 strains
Method: as §1, §2

Listeria monocytogenes = assay: Aerobe inhibition assay; format: cell-based; conditions: 2 strains, read-out: Minimum Inhibitory Concentrations (MICs)
Method: as §1, §2

Pseudo aerug = assay: Aerobe inhibition assay; format: cell-based; conditions: 1 strain, read-out: Minimum Inhibitory Concentrations (MICs)
Method: as §1, §2

Pseudo fluorescens = assay: Aerobe inhibition assay; format: cell-based; conditions: 1 strain, read-out: Minimum Inhibitory Concentrations (MICs)
Method: as §1, §2

Strep agalactiae = assay: Aerobe inhibition assay; format: cell-based; conditions: 2 strains
Method: as §1, §2

Strep pyogenes = assay: Aerobe inhibition assay; format: cell-based; conditions: 2 strains, read-out: Minimum Inhibitory Concentrations (MICs)
Method: as §1, §2

Mobiluncus curtisii = assay: Anaerobe inhibition assay; format: cell-based; conditions: 2 strains, read-out: Minimum Inhibitory Concentrations (MICs)
Bacteroides fragilis = assay: Anaerobe inhibition assay; format: cell-based; conditions: 1 strain, read-out: Minimum Inhibitory Concentrations (MICs)
Clost perfringes = assay: Anaerobe inhibition assay; format: cell-based, Clostridium perfringes; conditions: Clostridium, 2 strains, read-out: Minimum Inhibitory Concentrations (MICs)
Method: Working in an anaerobic chamber, the anaerobes were suspended into brucella broth to the turbidity of the 0.5 McFarland standard and pipetted into the wells of the Steers replicator head, removed from the chamber and stamped onto the supplemented Brucella agar plates containing the serial dilutions of the antimicrobials and the growth control plates. The final inoculum was 10^5 cfu/spot.
as §2

Peptrostrep. magnus = assay: Anaerobe inhibition assay; format: cell-based; conditions: 2 strains, read-out: Minimum Inhibitory Concentrations (MICs)
Prevotella bivia = assay: Anaerobe inhibition assay; format: cell-based; conditions: 2 strains, read-out: Minimum Inhibitory Concentrations (MICs)
Prevotella intermedia = assay: Anaerobe inhibition assay; format: cell-based; conditions: 2 strains, read-out: Minimum Inhibitory Concentrations (MICs)
Staph. aureus = assay: Aerobe inhibition assay; format: cell-based, Staphylococcus aureus; conditions: 3 strains
Method: as §1, §2

Cytotoxicity assay = format: cell-based; conditions: human, HeLa cells
Method: The cells listed in Table 4 were incubated for the indicated period of time with different concentrations of ciclopiroxolamine and cell viability was measured by the 3-(4,5-dimethylthiazol-2-yl)-2,5-diphenyltetrazolium bromide (MTT) assay or by treatment with propidium iodide and fluorescence. Percent viability was calculated with respect to the viability of mock-exposed cells (cells incubated without compounds).
In the MTT assay, the effect of each agent on cell viability was determined using an assay in which dehydrogenases in viable cells cleave the compound 3-(4,5-dimethylthiazol-2-yl)-2,5-diphenyltetrazolium bromide (MTT), yielding a purple product (formazan) which can be measured spectrophotometrically (Pauwels et al., 1988). Cells were seeded into 96 well plates at a density of 3×10^4 cells/well 24 hours prior to introduction of the microbicides. Agents were diluted in as previously indicated. Agents were added to triplicate wells in half-log serial dilutions. […] At the conclusion of each experiment, cells were washed, replenished with fresh medium and incubated with MTT (250 μl/well) for 2 hours at 37° C. […] In this assay, measured absorbance is proportional to the viable cell number, and inversely proportional to the degree of cytotoxicity.

[4] = read-out: Minimum Inhibitory Concentrations (MICs)

`Cc1cc(C2CCCCC2)n(O)c(=O)c1.NCCO` [CO, 6-Cyclohexyl-1-hydroxy-4-methyl-2-(1H)-pyridone ethanolamine salt] showed an IC50 (HIV-IRF) of 0.96 µg/mL, an IC50 [1] of 45.5 µg/mL and an IC50 [2] of 97.4 µg/mL. The IC50 [3] was 1600 µg/mL, the IC50 ([3]; HeLa cell monolayers, flow cytometry) was 1630 µg/mL and the MIC (C. albicans) was 20 µg/mL. For the same compound, the “Minimum Inhibitory Concentrations (MICs)” value (E. coli) was 80 µg/mL, the MIC (E. coli; Escherichia coli, read-out: Minimum Inhibitory Concentrations (MICs)) was 40 µg/mL and the MIC (Enterococcus faecalis) was 80 µg/mL. The MIC (Enterococcus faecium) was 40 µg/mL, the “Minimum Inhibitory Concentrations (MICs)” value (K1 pneumoniae) was 80 µg/mL and the MIC (K1 pneumoniae; [4]) was 40 µg/mL. The MIC (Listeria monocytogenes) was 40 µg/mL, the MIC (Pseudo aerug) was 80 µg/mL and the MIC (Pseudo fluorescens) was 160 µg/mL. For the same compound, the “Minimum Inhibitory Concentrations (MICs)” value (Strep agalactiae) was 160 µg/mL, the MIC (Strep agalactiae; [4]) was 80 µg/mL and the MIC (Strep pyogenes) was 80 µg/mL. The MIC (Mobiluncus curtisii) was 40 µg/mL, the MIC (Bacteroides fragilis) was 40 µg/mL and the MIC (Clost perfringes) was 40 µg/mL. The MIC (Peptrostrep. magnus) was 40 µg/mL, the MIC (Prevotella bivia) was 40 µg/mL and the MIC (Prevotella intermedia) was 40 µg/mL. For the same compound, the “Minimum Inhibitory Concentrations (MICs)” value (Staph. aureus) was 80 µg/mL, the MIC (Staph. aureus; Staphylococcus aureus, read-out: Minimum Inhibitory Concentrations (MICs)) was 40 µg/mL and the CC50 at 1 h (Cytotoxicity assay; Series 1, Original material, 1 hour incubation, 100 μg/ml highest conc tested) was over 100 µg/mL. For the same compound, the CC50 at 1 h (Cytotoxicity assay; Series 3, 1 hour incubation) was 859 µg/mL.

Reference: US20050037033A1, “Microbicidal compositions and methods and use” (priority 2003, published 2005)
